Measurements taken from ChEMBL document CHEMBL5653615 (J Biol Chem, 2013).
Calls of active or inactive are those of the source. The calls are words filed in the database; no cut-off is given here.

Experiments:
[1] = molecular target: Insulin receptor (Homo sapiens) (UniProt P06213); assay: Inhibition of wild-type human Insulin receptor transfected in CHO-K1 cell lysate assessed as decrease in tyrosine phosphorylation at 10 uM for 30 mins on ice followed by insulin stimulation for 10 mins by Western blot analysis; type: subcellular; settings: time 40.0 min
[2] = molecular target: T1, TGF-beta receptor type-1 (Homo sapiens) (UniProt P36897); assay: Inhibition of human ALK5 at 18.6 nM by HotSpot assay relative to control
T1 sequence (whole entry): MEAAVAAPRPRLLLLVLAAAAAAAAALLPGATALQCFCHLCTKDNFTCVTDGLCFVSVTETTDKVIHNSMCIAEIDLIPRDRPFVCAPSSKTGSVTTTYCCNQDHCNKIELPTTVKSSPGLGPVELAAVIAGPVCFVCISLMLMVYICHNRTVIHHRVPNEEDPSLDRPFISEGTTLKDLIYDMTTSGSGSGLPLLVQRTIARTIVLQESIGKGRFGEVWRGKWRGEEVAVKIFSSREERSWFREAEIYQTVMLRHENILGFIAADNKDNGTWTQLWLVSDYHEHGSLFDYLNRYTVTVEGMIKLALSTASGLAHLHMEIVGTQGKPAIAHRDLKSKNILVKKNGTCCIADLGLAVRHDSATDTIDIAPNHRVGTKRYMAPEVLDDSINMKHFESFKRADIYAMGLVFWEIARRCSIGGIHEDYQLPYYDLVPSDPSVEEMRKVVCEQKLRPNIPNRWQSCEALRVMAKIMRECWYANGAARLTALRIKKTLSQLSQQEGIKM

[3] = molecular target: T2, Megakaryocyte-associated tyrosine-protein kinase (Homo sapiens) (UniProt P42679); assay: Inhibition of human CTK at 18.6 nM by HotSpot assay relative to control
T2 sequence (whole entry): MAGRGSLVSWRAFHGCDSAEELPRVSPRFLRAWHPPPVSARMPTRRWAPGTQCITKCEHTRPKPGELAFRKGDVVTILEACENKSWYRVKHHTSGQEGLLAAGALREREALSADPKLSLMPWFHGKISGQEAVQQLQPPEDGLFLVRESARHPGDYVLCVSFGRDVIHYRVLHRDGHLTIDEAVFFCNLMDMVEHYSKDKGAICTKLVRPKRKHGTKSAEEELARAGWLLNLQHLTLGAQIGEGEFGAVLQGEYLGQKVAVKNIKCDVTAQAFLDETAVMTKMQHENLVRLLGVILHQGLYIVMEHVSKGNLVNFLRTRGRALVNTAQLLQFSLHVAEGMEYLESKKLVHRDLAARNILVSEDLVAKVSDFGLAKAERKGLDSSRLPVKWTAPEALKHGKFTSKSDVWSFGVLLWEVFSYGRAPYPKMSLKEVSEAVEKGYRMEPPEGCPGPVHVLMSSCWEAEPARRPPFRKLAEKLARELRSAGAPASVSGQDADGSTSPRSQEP

[4] = molecular target: T3, cGMP-dependent protein kinase 2 (Homo sapiens) (UniProt Q13237); assay: Inhibition of human PRKG2 at 18.6 nM by HotSpot assay relative to control
T3 sequence (whole entry): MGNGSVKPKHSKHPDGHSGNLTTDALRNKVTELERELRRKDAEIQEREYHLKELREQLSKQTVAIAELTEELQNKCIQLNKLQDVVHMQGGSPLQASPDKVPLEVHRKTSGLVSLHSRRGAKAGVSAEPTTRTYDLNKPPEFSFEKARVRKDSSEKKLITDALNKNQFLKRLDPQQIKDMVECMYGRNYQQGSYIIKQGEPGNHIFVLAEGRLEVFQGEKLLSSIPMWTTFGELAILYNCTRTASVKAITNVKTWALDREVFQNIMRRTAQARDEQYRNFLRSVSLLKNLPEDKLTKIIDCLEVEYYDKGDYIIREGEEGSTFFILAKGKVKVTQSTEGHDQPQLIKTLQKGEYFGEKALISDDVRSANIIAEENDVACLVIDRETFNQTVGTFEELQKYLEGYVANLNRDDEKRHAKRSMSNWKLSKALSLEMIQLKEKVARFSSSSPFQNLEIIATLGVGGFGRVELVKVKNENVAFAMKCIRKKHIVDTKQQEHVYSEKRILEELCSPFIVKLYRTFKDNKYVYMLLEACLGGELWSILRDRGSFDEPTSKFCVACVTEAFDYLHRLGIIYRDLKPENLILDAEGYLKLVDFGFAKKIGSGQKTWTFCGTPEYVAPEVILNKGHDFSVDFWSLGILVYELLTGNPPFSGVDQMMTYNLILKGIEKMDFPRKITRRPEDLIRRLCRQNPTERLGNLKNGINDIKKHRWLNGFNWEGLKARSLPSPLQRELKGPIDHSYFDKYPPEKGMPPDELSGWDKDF

[5] = molecular target: Insulin-like growth factor 1 receptor (Homo sapiens, UniProt P08069); settings: dose 18.6 nM
Description: Inhibition of human IGF1R at 18.6 nM by HotSpot assay relative to control

[6] = molecular target: Casein kinase I isoform gamma-3 (Homo sapiens) (UniProt Q9Y6M4); assay: Inhibition of human CK1g3 at 1.82 nM by HotSpot assay relative to control
[7] = molecular target: T4, Mitogen-activated protein kinase 12 (Homo sapiens) (UniProt P53778); assay: Inhibition of human P38g at 1.82 nM by HotSpot assay relative to control
T4 sequence (whole entry): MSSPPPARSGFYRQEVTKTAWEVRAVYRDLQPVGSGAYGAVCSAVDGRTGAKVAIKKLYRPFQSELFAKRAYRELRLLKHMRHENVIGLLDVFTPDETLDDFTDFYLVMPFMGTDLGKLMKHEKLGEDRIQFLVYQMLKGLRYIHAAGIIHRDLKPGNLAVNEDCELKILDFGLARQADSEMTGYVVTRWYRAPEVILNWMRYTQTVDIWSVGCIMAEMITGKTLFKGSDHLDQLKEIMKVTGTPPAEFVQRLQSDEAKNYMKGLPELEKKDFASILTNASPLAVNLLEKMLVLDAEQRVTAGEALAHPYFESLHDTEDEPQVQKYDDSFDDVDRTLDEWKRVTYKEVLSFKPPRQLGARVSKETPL

[8] = molecular target: T5, Serine/threonine-protein kinase Sgk2 (Homo sapiens) (UniProt Q9HBY8); assay: Inhibition of human SGK2 at 1.82 nM by HotSpot assay relative to control
T5 sequence (whole entry): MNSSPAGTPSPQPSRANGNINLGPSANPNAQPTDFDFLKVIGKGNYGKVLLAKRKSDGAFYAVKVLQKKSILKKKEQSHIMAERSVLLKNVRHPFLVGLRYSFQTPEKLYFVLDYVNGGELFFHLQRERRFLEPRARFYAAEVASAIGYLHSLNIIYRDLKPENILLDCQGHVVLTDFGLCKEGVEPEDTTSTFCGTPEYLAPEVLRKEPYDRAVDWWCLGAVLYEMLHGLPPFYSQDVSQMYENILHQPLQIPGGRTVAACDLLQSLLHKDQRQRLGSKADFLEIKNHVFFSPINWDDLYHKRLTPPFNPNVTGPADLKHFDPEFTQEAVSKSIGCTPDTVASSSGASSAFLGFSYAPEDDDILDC

Chain of Insulin receptor (Homo sapiens) (P06213 28-758 limits assumed): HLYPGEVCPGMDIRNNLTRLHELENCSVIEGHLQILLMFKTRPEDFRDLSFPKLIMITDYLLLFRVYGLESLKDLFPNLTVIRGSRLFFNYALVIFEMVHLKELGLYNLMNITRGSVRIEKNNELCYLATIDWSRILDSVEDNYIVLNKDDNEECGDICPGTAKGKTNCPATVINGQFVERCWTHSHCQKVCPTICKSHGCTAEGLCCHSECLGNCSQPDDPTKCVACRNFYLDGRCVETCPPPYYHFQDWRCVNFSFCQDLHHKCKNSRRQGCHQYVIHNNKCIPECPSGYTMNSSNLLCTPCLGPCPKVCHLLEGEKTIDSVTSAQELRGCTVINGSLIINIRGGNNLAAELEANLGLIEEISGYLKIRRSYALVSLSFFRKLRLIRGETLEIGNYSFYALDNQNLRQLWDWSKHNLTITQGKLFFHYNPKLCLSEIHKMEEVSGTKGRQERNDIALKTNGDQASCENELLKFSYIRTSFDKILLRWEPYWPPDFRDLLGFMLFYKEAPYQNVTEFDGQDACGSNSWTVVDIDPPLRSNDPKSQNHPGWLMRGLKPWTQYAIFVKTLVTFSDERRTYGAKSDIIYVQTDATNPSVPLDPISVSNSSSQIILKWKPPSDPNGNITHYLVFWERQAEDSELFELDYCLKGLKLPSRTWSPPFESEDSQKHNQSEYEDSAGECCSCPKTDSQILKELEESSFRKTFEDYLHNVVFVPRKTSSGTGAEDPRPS
Chain of Insulin receptor (Homo sapiens) (P06213 763-1382 limits assumed): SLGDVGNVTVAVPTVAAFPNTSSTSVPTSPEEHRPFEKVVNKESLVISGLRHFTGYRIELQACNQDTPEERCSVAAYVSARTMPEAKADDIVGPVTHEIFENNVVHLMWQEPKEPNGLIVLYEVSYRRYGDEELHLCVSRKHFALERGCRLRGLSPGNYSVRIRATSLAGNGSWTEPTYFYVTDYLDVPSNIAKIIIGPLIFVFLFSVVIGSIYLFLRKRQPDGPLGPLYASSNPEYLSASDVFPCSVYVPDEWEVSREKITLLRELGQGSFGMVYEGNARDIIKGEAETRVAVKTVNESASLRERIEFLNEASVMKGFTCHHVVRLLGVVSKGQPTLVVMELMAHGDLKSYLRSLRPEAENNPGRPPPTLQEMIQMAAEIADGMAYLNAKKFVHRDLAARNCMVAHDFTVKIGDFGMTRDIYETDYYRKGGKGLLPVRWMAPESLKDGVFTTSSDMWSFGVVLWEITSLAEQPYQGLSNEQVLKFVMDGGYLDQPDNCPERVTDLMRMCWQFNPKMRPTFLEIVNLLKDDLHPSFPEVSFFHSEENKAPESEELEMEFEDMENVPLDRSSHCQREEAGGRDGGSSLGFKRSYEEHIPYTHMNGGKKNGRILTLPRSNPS
Chain of Casein kinase I isoform gamma-3 (Homo sapiens) (Q9Y6M4 whole entry, looked up, canonical isoform): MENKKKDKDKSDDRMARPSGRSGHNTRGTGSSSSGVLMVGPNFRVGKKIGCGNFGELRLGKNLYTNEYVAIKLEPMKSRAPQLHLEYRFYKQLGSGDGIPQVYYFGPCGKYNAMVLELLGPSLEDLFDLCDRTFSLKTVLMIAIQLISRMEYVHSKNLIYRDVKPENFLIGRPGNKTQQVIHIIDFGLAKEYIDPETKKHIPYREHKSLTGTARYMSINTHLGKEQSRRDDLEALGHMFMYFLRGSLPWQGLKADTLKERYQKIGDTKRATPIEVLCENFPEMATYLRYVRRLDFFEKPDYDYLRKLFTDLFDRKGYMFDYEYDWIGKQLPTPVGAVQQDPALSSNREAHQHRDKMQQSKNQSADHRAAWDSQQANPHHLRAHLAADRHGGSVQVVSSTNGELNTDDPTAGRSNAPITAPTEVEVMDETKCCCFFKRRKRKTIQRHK
Chain of Insulin-like growth factor 1 receptor (P08069 31-736 limits assumed): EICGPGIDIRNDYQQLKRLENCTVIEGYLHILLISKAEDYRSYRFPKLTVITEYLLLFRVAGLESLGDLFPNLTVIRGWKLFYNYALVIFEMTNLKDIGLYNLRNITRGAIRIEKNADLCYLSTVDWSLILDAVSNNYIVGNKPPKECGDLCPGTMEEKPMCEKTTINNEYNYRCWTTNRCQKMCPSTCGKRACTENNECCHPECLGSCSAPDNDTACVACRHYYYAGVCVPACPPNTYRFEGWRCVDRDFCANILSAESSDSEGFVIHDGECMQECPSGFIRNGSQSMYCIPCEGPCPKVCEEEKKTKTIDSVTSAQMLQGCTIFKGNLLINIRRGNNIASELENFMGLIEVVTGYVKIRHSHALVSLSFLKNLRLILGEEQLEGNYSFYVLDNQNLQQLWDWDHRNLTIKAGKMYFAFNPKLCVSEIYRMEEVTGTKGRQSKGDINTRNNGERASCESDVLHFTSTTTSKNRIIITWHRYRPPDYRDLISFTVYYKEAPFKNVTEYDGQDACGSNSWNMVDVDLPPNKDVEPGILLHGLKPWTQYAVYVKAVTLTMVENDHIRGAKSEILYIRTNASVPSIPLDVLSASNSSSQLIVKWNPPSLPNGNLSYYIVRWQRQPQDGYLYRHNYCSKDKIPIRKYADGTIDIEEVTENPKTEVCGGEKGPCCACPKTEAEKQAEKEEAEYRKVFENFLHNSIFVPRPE
Chain of Insulin-like growth factor 1 receptor (P08069 741-1367 limits assumed): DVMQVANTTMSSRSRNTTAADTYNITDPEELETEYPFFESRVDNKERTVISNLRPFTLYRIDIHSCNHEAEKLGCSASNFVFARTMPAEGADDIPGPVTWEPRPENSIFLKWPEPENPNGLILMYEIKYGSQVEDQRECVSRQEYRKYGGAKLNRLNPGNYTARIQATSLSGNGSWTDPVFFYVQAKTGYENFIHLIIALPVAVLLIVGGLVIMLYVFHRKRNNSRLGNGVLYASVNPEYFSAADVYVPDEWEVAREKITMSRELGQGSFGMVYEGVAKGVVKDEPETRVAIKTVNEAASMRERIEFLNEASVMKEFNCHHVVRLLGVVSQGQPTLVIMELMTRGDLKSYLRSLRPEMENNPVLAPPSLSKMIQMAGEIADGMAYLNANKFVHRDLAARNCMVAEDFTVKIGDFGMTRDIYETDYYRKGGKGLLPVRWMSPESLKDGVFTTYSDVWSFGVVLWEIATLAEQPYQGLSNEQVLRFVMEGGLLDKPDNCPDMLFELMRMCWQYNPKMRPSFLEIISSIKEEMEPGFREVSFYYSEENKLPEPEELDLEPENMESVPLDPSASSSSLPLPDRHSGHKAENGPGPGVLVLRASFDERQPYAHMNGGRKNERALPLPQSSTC

Oc1n[nH]c2nnc(-c3c(-c4ccccc4)nn4ccccc34)cc12
inhibition [1]: Active

C[C@]1(O)C[C@@H](c2nc(-c3ccc4ccc(-c5ccccc5)nc4c3)c3c(N)nccn32)C1
inhibition [2]: 2.47%
inhibition [3]: -2.07%
inhibition [4]: -3.76%
inhibition [5]: 66.3%

C[C@@]1(C(=O)Nc2ccc(F)nc2)CCCN1c1nc(Nc2cc(C3CC3)n[nH]2)c2cccn2n1
inhibition [6]: 0.91%
inhibition [7]: -4.67%
inhibition [8]: -0.21%
